Consider four molecules from patent US20220281822A1, “PLANT GROWTH REGULATOR AND METHOD FOR PROMOTING PLANT GROWTH” (Kureha Corporation, priority 2019, published 2022).

What all share (format): in vivo
Assay [1] relates to Arabidopsis thaliana (Col-O). Put plainly: Seed yield of Arabidopsis thaliana at different compound concentrations (Examples 2 to 4). As to conditions: for Seed yield Ratio: 85th day, Comparative Example 6 (distilled water) set to 1; for Seed yield: harvested on 85th day after seeding, 22° C. As for the experimental part: One individual Arabidopsis thaliana (Col-O) was sown in a plastic pot having a diameter of 60 mm and a height of 55 mm. Plastic deep dishes each having a diameter of 160 mm and a height of 28 mm were prepared, and six pots were respectively placed therein. As soil, 45 mL of vermiculite, 22.5 mL of granular soil (JA Granular Kumiai Synthetic Soil No. 3), and 22.5 mL of vermiculite were placed in each pot in this order.
The procedure was the same as in Example 1, except that the room temperature was set to 22° C.
On the 85th day after seeding, seeds were harvested, and the seed yield (mg/plant) was measured.
The same operation as in Example 2 was carried out except that the concentration of L-(+)-ergothioneine aqueous solution was set to 0.1 mM.
The same operation as in Example 2 was carried out except that the concentration of L-(+)-ergothioneine aqueous solution was set to 0.01 mM. […]
The same operation as in Example 2 was carried out except that the L-(+)-ergothioneine aqueous solution was replaced with distilled water.
(§1) The ratio of “grass height” and “flowers and fruits” for Example 1, Comparative Example 1, and Comparative Example 2 to the results of Comparative Example 2 are shown in Table 1 as “Ratio”, respectively. The “seed yield” for Examples 2 to 4 and Comparative Examples 3 to 6 are shown as “Ratio” in Table 2, where the value for Comparative Example 6 is set to 1. The “seed yield” for Examples 5 and 6 and Comparative Examples 7 and 8 are shown as “Ratio” in Table 3, where the value for Comparative Example 8 is set to 1.

For assay [2], the system named is Arabidopsis thaliana (Col-O). Put plainly: Plant height and number of flowers and fruits of Arabidopsis thaliana after treatment via water supply (Example 1). The settings on record: for Flower and Fruit Ratio / Plant height Ratio: 1 mM, 37th day after seeding, ratio to Comparative Example 2 (distilled water); for Flower and Fruit / Plant height: 50 mL of 1 mM aqueous solution on 21st, 23rd, 25th, 27th days after seeding, measured on 37th day, 25° C. On the procedure: Arabidopsis thaliana (Col-O) was sown in plastic pots having a width of 65 mm, a depth of 65 mm, and a height of 70 mm, three individuals per pot. Plastic deep dishes each having a diameter of 160 mm and a height of 28 mm were prepared, and three pots were respectively placed therein. As soil, 100 mL of vermiculite, 50 mL of granular soil (JA Granular Kumiai Synthetic Soil No. 3), and 50 mL of vermiculite were placed in each pot in this order.
In a thermostatic chamber set at room temperature of 25° C., the light period was 16 hours and the dark period was 8 hours. The light conditions were set using a fluorescent lamp (PLANT FLEC, 40 W LED fluorescent lamp for plant growth, electric bulb color, available from Nippon Medical and Chemical Instruments Co., Ltd.) so that the light intensity was 5000 lx in the central part under the fluorescent lamp irradiation. Water supply was done from the bottom, and the water level was set at about 5 mm. Ergothioneine treatment was started 4 weeks after seeding. More specifically, on the 21st, 23rd, 25th, and 27th days after seeding, 50 mL of a 1 mM L-(+)-ergothioneine (available from Cayman Chemical) aqueous solution was added instead of water supply.
On the 37th day after seeding, the plant height (cm) and the number of flowers and fruits per Arabidopsis thalianawere measured.
The same operation as in Example 1 was carried out except that L-(+)-ergothioneine in the aqueous solution was replaced with oxidized glutathione (available from Wako Pure Chemical Industries, Ltd.).
The same operation as in Example 1 was carried out except that the L-(+)-ergothioneine aqueous solution was replaced with distilled water.
as §1

The subject of assay [3] is Arabidopsis thaliana (Col-O). Put plainly: Seed yield of Arabidopsis thaliana at different times of treatment (Examples 5 and 6). The settings on record: 1 mM; for Seed yield: harvested on 82nd day, 22° C.; for Seed yield Ratio: 82nd day, Comparative Example 8 (distilled water) set to 1. As for the experimental part:
The same operation as in Example 2 was carried out.
The same operation as in Example 1 was carried out except that the room temperature was set at 22° C. and L-(+)-ergothioneine was added 2 weeks after seeding, more specifically on the 8th, 10th, 12th, and 14th days.
On the 82nd day after seeding, seeds were harvested, and the seed yield (mg/plant) was measured.
The same operation as in Example 5 was carried out except that L-(+)-ergothioneine was added 4 weeks after seeding, more specifically on the 22nd, 24th, 26th, and 28th days.
The same operation as in Example 5 was carried out except that oxidized glutathione was used in place of L-(+)-ergothioneine in the aqueous solution and added 4 weeks after seeding, more specifically on the 22nd, 24th, 26th, and 28th days.
The same operation as in Example 5 was carried out except that the L-(+)-ergothioneine aqueous solution was replaced with distilled water.
as §1

[4] abbreviates: time of treatment 4 weeks after seeding (22nd, 24th, 26th, 28th days).
Setting [5] is: time of treatment 4 weeks after seeding.

Regarding `N[C@@H](CCC(=O)O)C(=O)O` [L-glutamic acid, reference compound], in assay [1] (compound concentration 1 mM), the “Seed yield Ratio” value stood at 1.0 and the Seed yield is recorded as 90 mg/plant.

For `O=C(O)[C@@H]1CCCN1` [L-proline, reference compound], in assay [1] (compound concentration 1 mM), the “Seed yield Ratio” value worked out at 1.2 and the Seed yield stood at 102 mg/plant.

With “oxidized glutathione [reference compound]”, in assay [1] (compound concentration 1 mM), the “Seed yield Ratio” value stood at 1.2 and the Seed yield amounted to 100 mg/plant. Besides, in assay [2], the “Flower and Fruit Ratio” value came to 1.5; the “Plant height Ratio” value is 1.1; the “Flower and Fruit” value was 22 Number/plant; the Plant height came out at 24 cm. Further, in assay [3] (setting [4]), the Seed yield is listed as 92 mg/plant. In assay [3] (setting [5]), the “Seed yield Ratio” value was 1.3.

As to `C[N+](C)(C)[C@@H](Cc1c[nH]c(=S)[nH]1)C(=O)[O-]` [L-(+)-ergothioneine], the “Seed yield Ratio” value in assay [1] (compound concentration 0.01 mM) is listed as 1.3; in assay [1] (compound concentration 0.1 mM) it was 1.5; in assay [1] (compound concentration 1 mM) it was 1.7; in assay [3] (time of treatment 2 weeks after seeding), 2.0; in assay [3] (setting [5]), 1.7. The Seed yield is given as 109 mg/plant in assay [1] (compound concentration 0.01 mM); 130 mg/plant in assay [1] (compound concentration 0.1 mM); 142 mg/plant in assay [1] (compound concentration 1 mM); 140 mg/plant in assay [3] (time of treatment 2 weeks after seeding (8th, 10th, 12th, 14th days)); 114 mg/plant in assay [3] (setting [4]). Besides, in assay [2], the “Flower and Fruit Ratio” value is recorded as 1.7. In addition, in assay [2], the “Plant height Ratio” value is given as 1.3. The “Flower and Fruit” value in assay [2] was found to be 26 Number/plant. In addition, the Plant height in assay [2] came to 29 cm.
